Values of other authors, collected in US20260327216A1, “SUBSTITUTED OXAZOLONE COMPOUND FOR DECREASING LEVELS OF IKZF I-4 PROTEINS” (BRISTOL-MYERS SQUIBB COMPANY, priority 2023, published 2026).

Experiments:
solid tumors = conditions: patients with solid tumors / advanced malignancies; cited from earlier work
[1] = tested on: highly immunogenic syngeneic tumors; conditions: engineered mouse models; Geng et al., 2022; cited from earlier work
T and NK cell functions = conditions: preclinical and clinical studies; cited from earlier work

Compound | clinical response in patients with solid tumors (solid tumors) | antitumor immune responses against highly immunogenic syngeneic tumors [1] | effect on T and NK cell functions (T and NK cell functions)
Nc1cccc2c1C(=O)N(C1CCC(=O)NC1=O)C2=O (centres unmarked) [pomalidomide] | modest responses of stable disease | – | –
Cc1nc2cccc(N)c2c(=O)n1C1CCC(=O)NC1=O (centres unmarked) [avadomide] | modest responses of stable disease | – | –
Nc1cccc2c1CN(C1CCC(=O)NC1=O)C2=O (centres unmarked) [lenalidomide] | modest responses of stable disease | modestly increase antitumor immune responses | augment T and NK cell functions
